Results on one compound are retold here after patent US4584301A, “Diphenylmethylene piperidines, compositions and methods of use” (Warner-Lambert Company, priority 1985, dated 1986).

Each structure is given as a SMILES string. Structures can show the parent of a compound that is named as a salt.

The target in one assay is brain dopamine receptors. The assay is described as follows: Haloperidol receptor binding assay (HRBA), inhibition of 3H-haloperidol binding. Particulars: rat corpus striatum, 0.6 nM 3H-haloperidol, pH 7.7.
A further assay deals with T1, Histamine H1 receptor (Rattus norvegicus, UniProt P31390).
T1 construct: Histamine H1 Receptors in Rat Brain Membranes; from tissue; host or cells: rat brain membranes
T1 sequence (P31390 whole entry): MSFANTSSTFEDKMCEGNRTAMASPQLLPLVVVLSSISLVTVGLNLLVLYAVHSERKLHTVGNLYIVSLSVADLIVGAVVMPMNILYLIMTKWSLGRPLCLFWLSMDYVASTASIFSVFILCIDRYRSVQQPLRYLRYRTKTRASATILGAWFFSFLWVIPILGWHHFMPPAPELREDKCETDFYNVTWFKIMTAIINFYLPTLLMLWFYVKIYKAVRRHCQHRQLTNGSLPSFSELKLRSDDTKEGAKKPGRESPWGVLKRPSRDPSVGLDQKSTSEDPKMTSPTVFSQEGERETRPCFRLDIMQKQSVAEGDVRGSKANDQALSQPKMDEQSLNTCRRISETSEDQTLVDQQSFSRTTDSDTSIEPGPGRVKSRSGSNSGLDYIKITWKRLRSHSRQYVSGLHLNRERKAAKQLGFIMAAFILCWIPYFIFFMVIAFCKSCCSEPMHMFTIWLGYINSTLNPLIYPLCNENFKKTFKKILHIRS
The assay is described as follows: Affinity for histamine H1 receptors in rat brain membranes. Particulars: rat brain membranes; read-out: Receptor Ki, Histamine H1. Type of assay: binding. From the text: (§1) for Dopamine D2, Muscarinic, and
(§2) Histamine H1 Receptors in Rat Brain Membranes
*Tran V. T., Lebovitz, R., Toll, L., and Snyder, S. H.: [^3 H]Doxepin
interactions with histamine H1 -receptors in guinea pig and rat brai

In assay [1] the target is Muscarinic Cholinergic receptor. Nature of the assay: Affinity for muscarinic cholinergic receptors in rat brain membranes. Type of assay: binding. The protocol:
This test uses the displacement of [^3 H] quinuclidinyl benzilate ([^3 H]QNB) from specific muscarinic cholinergic receptors in the rat brain to measure in vitro anticholinergic activity of compounds. […]. A Long-Evans male rat weighing 180-200 grams is routinely used. The brain tissue homogenate along with appropriate concentrations of test compounds and [^3 H]QNB is incubated for one hour at 25° C. in a buffer medium of 50 mM Na-K PO4 pH 7.4. The material is filtered and washed on a millipore filter using Whatman GF/B filters. The filters are counted on a scintillation spectrophotometer. A maximal displacement by 0.1 mM oxotremorine is used to determine how much of the total binding is specific for muscarinic receptors.
Results: The results are reported as percent inhibition of total specific binding. Reference: Yamamura, Henry L. and Snyder, Solomon H. (1974). Muscarinic Cholinergic Binding in Rat Brain Proc. Nat. Acad. Sci. USA Vol 71 No. 5 pp. 1725-1729 May 1974.
as §1, §2

Another assay deals with Dopamine D2 receptor (Rattus norvegicus, UniProt P61169). The assay is described as follows: Affinity for dopamine D2 receptors in rat brain membranes. Type of assay: binding.
Chain of Dopamine D2 receptor (P61169 whole entry): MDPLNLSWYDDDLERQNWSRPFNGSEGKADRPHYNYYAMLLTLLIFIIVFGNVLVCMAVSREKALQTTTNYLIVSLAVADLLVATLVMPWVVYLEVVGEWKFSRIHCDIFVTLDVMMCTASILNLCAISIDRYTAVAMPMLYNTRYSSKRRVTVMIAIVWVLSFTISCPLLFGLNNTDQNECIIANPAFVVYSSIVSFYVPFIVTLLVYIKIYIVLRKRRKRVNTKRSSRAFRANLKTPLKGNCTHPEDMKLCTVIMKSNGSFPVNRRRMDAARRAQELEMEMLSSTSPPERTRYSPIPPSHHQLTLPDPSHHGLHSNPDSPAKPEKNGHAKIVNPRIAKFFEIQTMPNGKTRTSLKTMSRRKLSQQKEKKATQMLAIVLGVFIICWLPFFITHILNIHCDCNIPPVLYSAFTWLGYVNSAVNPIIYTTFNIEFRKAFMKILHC
The target of assay [2] is muscarinic cholinergic receptors. Type of assay: binding. Particulars: rat brain homogenate, [3H]QNB, 25° C., pH 7.4; read-out: MRBA IC50.
The subject of assay [3] is apomorphine-induced emesis in dogs. Nature of the assay: Apomorphine emesis assay. It counts as in vivo, dog. Particulars: Canis lupus familiaris, oral, apomorphine hydrochloride 0.1 mg/kg s.c. The protocol:
3. APOMORPHINE EMESIS ASSAY
Method: Dogs, unsegregated with respect to breed or sex, are used. They are fasted for 16 hours prior to the administration of the test compound. The test compounds are given orally by stomach tube at intervals prior to a subcutaneous injection of 0.1 mg/kg of apomorphine hydrochloride. The dogs are observed for changes in behavior or signs of neuropharmacologic action during the period between drugs and the emetic. After the apomorphine injection the frequency of vomiting episodes is recorded.
The number of dogs vomiting per total number tested, the number of vomiting episodes for each dog, and the average number of episodes are reported for dogs treated with the test compound and dogs treated with vehicle.
The drug is rated as being active if no vomiting episodes are seen in 50 percent or more of the dogs tested.

As for `c1ccc(C(=C2CCN(CCN3CCOCC3)CC2)c2ccccc2)cc1` [Compound 1, Morpholine, 4-[2-[4-(diphenylmethylene)-1-piperidinyl]ethyl], dihydrochloride], the IC50 on brain dopamine receptors came out at 29 nM; in assay [2], 148 nM. The Ki on Histamine H1 receptor is 20 nM; in assay [1] it was 32 nM; on Dopamine D2 receptor it was 31 nM. In assay [3], this compound came in with an ED50 of about 5 mg/kg.
